Laboratory results as given in publication PMC3989846 (Malaria Journal, 2014).
Read-outs that look alike come from different tables or passages of the source.

Experiments:
[1] = Liver tissue distribution pharmacokinetics after single intravenous or intragastric dose; format: in vivo, male ICR mice; conditions: for Kp: liver/plasma, read-out: AUCinf ratio (liver/plasma); for half-life: read-out: t1/2 elimination (converted)
Protocol: (§1) PK studies were performed using both intravenous (IV) and intragastric (IG) administration. For each time point to be acquired, three male ICR mice per time-point, aged seven weeks, were dosed at either PQ or TQ at 5 mg/kg (IV) or 20 mg/kg (IG). Drug vehicle for IV studies was 0.9% saline solution, and the formulated drugs were administered in a volume of 100 μL/20 g of body weight. For IG dosing, the drug vehicle was 0.5% HECT, administered at 100 μL/20 g. At each time point, plasma and liver samples were collected. Whole blood was collected by cardiac puncture. […] Following the separation of appropriate aliquots, plasma was obtained from the whole blood via centrifugation. All liquid and tissue samples were immediately preserved on dry ice and lately stored at -80°C until analytical work was performed.
Blank liver homogenate was prepared by adding 5 mL of water for each gram of liver, then the mixture was homogenized using an ultra-sonication probe (VCX 750, Sonics & Materials, Inc., Newtown, CT). […] The serial dilutions for analysis also included the preparation of 4–5 QC samples at a low range point and a high range point (generally 10 ng/mL and 100 ng/mL, respectively). Once the standard curve dilutions were prepared, a 100 μL aliquot was removed and extracted with 200 μL acetonitrile. The extracted samples were centrifuged at 10,000 rpm for 10 min and the supernatant was removed for analysis by LC-MS/MS. Sample drug concentrations were first interpolated from the standard curve, then multiplied by a factor of 6 to account for the drug levels present in the liver prior to dilution with water for homogenization.
(§2) Chromatography was performed using a Surveyor pump (Thermo Scientific, Waltham, MA) with Waters XTerra MS C18 50 mm × 2.1 mm id, 3.5 μm particle size columns (Waters Corp., Milford, MA). Mobile phase consisted of a water/0.1% formic acid (Solvent A)/acetonitrile/0.1% formic acid (Solvent B) gradient. […] Flow rate was 300 μL/min. Samples were injected using an HTC PAL autosampler (LEAP Technologies, Carrboro, NC). Tandem mass spectrometry was performed using a TSQ Quantum AM (Thermo Scientific).
(§3) Drug concentrations were generated for each sample taken from animals dosed with both test drugs. A measured plasma and liver drug concentration vs. time curve was produced, in graphic and tabular form, for each subject on both linear/linear and log/linear scales, for the parent compound. Mean plasma drug concentration vs. time curves were also prepared separately. For the determination of initial approach to PK parameters of TQ and PQ in plasma and liver tissues after systemic application, a non-compartmental analysis was performed using Phoenix (version 6.1; Pharsight Corp., Mountain View, CA). Maximum plasma and liver concentration (Cmax), and time to maximum concentration (tmax) of TQ and PQ were obtained from the plasma and liver drug concentration-time curves. The elimination half-life (t1/2) was calculated from In2/kel, which is the elimination rate constant calculated from the log concentration-time plot. The area under the curve (AUC) and the area under the first moment curve (AUMC) were determined by the linear trapezoidal rule with extrapolation to infinity based on the concentration of the last time point divided by the terminal rate constant. Mean clearance rate (CL) was determined by dividing the dose by the AUCinf for intravenous injection for plasma samples. Absolute bioavailability was calculated by taking the dose-corrected area under the curve (AUC) from non-intravenous dosing divided by the AUC derived from intravenous dosing. Mean residence time (MRT) was determined by dividing the area under the first moment curve (AUMC) by AUC. The volume of the central compartment (Vz) and volume of the tissue compartment (Vz/F) were calculated as the product of CL and MRT.

[2] = set-up: method as in PMID 9598455; conditions: simulated gastric fluid; cited from earlier work
[3] = Plasma pharmacokinetics after single intravenous or intragastric dose; format: in vivo, male ICR mice; conditions: for Cmax / bioavailability / AUC(0-t) / MRT / AUC / Tmax / half-life / clearance / Vd: ICR, mouse; for bioavailability: intragastric 20 mg/kg vs intravenous 5 mg/kg, read-out: Absolute bioavailability; for AUC: read-out: AUCinfininty; for half-life: read-out: t1/2 elimination (converted); for Vd: read-out: Vz
Protocol: as §1
Sample was prepared by adding twice the normal volume of acetonitrile containing indomethacin internal standard (IS). The samples were mixed for 1 minute, centrifugation for 5 minutes, and the supernatant was transferred to an autosampler injection vial prior to separation by LC/MS/MS. Standard curve and quality control (QC) samples were generated by spiking interference free mouse plasma samples with known amounts of PQ, TQ and IS. Standard curve, QC, and assay samples were prepared and then 40 μL aliquots were injected into the LC/MS/MS system for chromatographic separation and subsequent mass spectrometric detection.
as §2, §3

[4] = set-up: method as in PMID 15378438, PMID 10479159; conditions: cited from earlier work
[5] = set-up: method as in PMID 9598455; conditions: cited from earlier work
[6] = male, ICR, mouse, po, intragastric 20 mg/kg, liver
[7] = male, ICR, mouse, intravenous 5 mg/kg, liver
[8] = male, po, intragastric 20 mg/kg, plasma
[9] = male, intravenous 5 mg/kg, plasma
[10] = male, in vivo, po, intragastric 20 mg/kg, plasma
[11] = male, in vivo, intravenous 5 mg/kg, plasma

COc1cc(C)c2c(Oc3cccc(C(F)(F)F)c3)c(OC)cc(NC(C)CCCN)c2n1 (stereo not drawn) [Tafenoquine, tafenoquine]
Cmax ([1]; ICR, mouse, intravenous 5 mg/kg, liver, male mice (head: μg/mL or g), read-out: Cmax): 44800 ± 30000 ng/g | AUCinf ratio (liver/plasma) ([1]; intragastric 20 mg/kg): 48.91 ± 22.67 | Cmax ([1]; intragastric 20 mg/kg, liver): 56900 ± 26090 ng/mL | AUCinf ratio (liver/plasma) ([1]; intravenous 5 mg/kg, 5 mg/kg): 87.24 ± 44.29 | AUClast ([1]; intravenous 5 mg/kg, liver (μg · h/mL or g)): 2493.82 ± 1361.10 µg·h/g | AUCinfininty ([1]; intravenous 5 mg/kg, liver (μg · h/mL or g), 5 mg/kg): 2544.96 ± 1348.03 µg·h/g | AUCinfininty ([1]; intravenous 5 mg/kg, liver (μg · h/mL or g), listed as TQ, 5 mg/kg): 2544.96 µg·h/g | Kp ([1]; male, ICR, mouse, po, intragastric 20 mg/kg): 48.9 | Kp ([1]; male, ICR, mouse, intravenous 5 mg/kg): 87.2 | MRT [1, 6]: 88.7 ± 13 h | Tmax [1, 6]: 1.17 ± 0.76 h | half-life [1, 6]: 75.5 ± 12.1 h | MRT [1, 7]: 66.1 ± 19.2 h | Tmax [1, 7]: 3.69 ± 2.29 h | half-life [1, 7]: 70 ± 4.35 h | Cmax ([1]; male, ICR, mouse, single oral dose 20 mg/kg, liver, read-out: Cmax): 56900 ng/g | Cmax of orally dosed TQ, fold higher than PQ in liver tissue ([1]; oral, liver): ~7 fold | elimination half-life of oral TQ, fold longer than oral PQ in the liver ([1]; oral, liver): 17.6 fold | AUCinf ([1]; single oral dose 20 mg/kg, liver): 5391.86 µg·h/g | time to complete dissolution [2]: ≤ 30 min | Cmax ([3]; intravenous 5 mg/kg, plasma, male mice): 660 ± 130 ng/mL | Cl ([3]; intragastric 20 mg/kg, plasma): 2.5 ± 0.5 mL/min/kg | Vz ([3]; intragastric 20 mg/kg, plasma): 10.60 ± 1.22 L/kg | bioavailability ([3]; male, oral, plasma): 101 ± 37.5% | AUC(0-t) [3, 8]: 138000 ± 24400 ng·h/mL | Cmax [3, 8]: 2040 ± 590 ng/mL | MRT [3, 8]: 62.1 ± 2.3 h | AUC [3, 8]: 139000 ± 24900 ng·h/mL | Tmax ([3]; male, po, intragastric 20 mg/kg, plasma, read-out: Tmax): 11.3 ± 5.37 h | half-life [3, 8]: 50.9 ± 4.23 h | AUC(0-t) [3, 9]: 29600 ± 6740 ng·h/mL | MRT [3, 9]: 55.9 ± 3.86 h | clearance [3, 9]: 2.83 mL/min/kg | AUC [3, 9]: 30100 ± 6650 ng·h/mL | Tmax ([3]; male, intravenous 5 mg/kg, plasma, read-out: Tmax): 1.36 ± 1.11 h | Vd [3, 9]: 16.8 ± 6.44 L/kg | half-life [3, 9]: 66.3 ± 10.3 h | absolute bioavailability of oral TQ, fold greater than oral PQ ([3]; oral): 3.5 fold | clearance as % of the hepatic blood flow ([3]; oral CL 0.15 L/hours/kg): 3% | AUCinf of oral TQ, fold higher than oral PQ ([3]; oral, plasma): 94 fold | Cmax of oral TQ, fold higher than oral PQ ([3]; oral, plasma): approximately 4 fold | elimination clearance of oral TQ, fold slower than oral PQ ([3]; oral, plasma): 370 fold | absorption rate of oral TQ, fold slower than PQ ([3]; oral, plasma, mice): 22.7 fold | duration of quantifiable concentrations ([3]; single 20 mg/kg dose): more than two weeks | half-life [4]: approximately 14 days

COc1cc(NC(C)CCCN)c2ncccc2c1 (stereo not drawn) [Primaquine, primaquine]
dose excreted as unchanged drug in the urine [5]: less than 1% | Cmax ([3]; in vivo, intravenous 5 mg/kg, plasma, male mice): 1210 ± 210 ng/mL | Cl ([3]; intragastric 20 mg/kg, plasma): 965.7 ± 342 mL/min/kg | Vz ([3]; intragastric 20 mg/kg, plasma): 154.66 ± 61.83 L/kg | AUCinfininty ([3]; intravenous 5 mg/kg, plasma, 5 mg/kg): 1260 ± 140 ng·h/mL | AUC ([3]; male, in vivo, iv, 5 mg/kg, intravenous 5 mg/kg, plasma): 1200 ng·h/mL | AUC ([3]; male, in vivo, po, 20 mg/kg, intragastric 20 mg/kg, plasma): 1310 ± 410 ng·h/mL | AUC(0-t) [3, 10]: 1260 ± 400 ng·h/mL | Cmax [3, 10]: 530 ± 70 ng/mL | MRT [3, 10]: 2.28 ± 0.1 h | Tmax ([3]; male, in vivo, po, intragastric 20 mg/kg, plasma, read-out: Tmax): 0.5 h | Tmax ([3]; male, in vivo, absorbed from the gastrointestinal tract, mice, read-out: time to peak plasma levels): ≤ 0.0833 h | bioavailability ([3]; male, in vivo, plasma): 28.3 ± 6.93% | AUC(0-t) [3, 11]: 1200 ± 130 ng·h/mL | MRT [3, 11]: 0.68 ± 0.02 h | clearance [3, 11]: 69.8 mL/min/kg | Tmax ([3]; male, in vivo, intravenous 5 mg/kg, plasma, read-out: Tmax): 0.08 h | Vd [3, 11]: 3.85 ± 0.71 L/kg
